Several values for one entry are separate records, joined by “and”; a condition that tells them apart may be missing. Equal entries are not always repeated.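 Growth conditions: 96-well plates. Treatment: test compound, 48 hours, 5 concentrations. Analysis: linear interpolation between bracketing concentrations; unreached endpoints set to highest concentration. At the GI50, growth is halved. Definition used: TGI = concentration required for complete inhibition of growth.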

What all share (assay): inhibition of tumour cell growth, NCI panel, 48 h
For assay [1], the system named is 786-0 renal.
The subject of assay [2] is ACHN renal.
Assay [3] relates to BT-549 breast.
Assay [4] concerns COLO 205 colon.
Assay [5] concerns HOP-92 NSCLC.
Assay [6] concerns LOX IMVI melanoma.
For assay [7], the system named is MCF7 breast.
Assay [8] concerns MDA-MB-231 breast.
Assay [9] relates to NCI-H522 lung.
Assay [10] relates to SR leukemia.

For `Clc1ccccc1C(Nc1ncccn1)Nc1ncccn1`, the TGI in [1], in assay [2], in [3], in assay [4], in assay [5] and in assay [6] was more than 100 µM each time. Besides, the TGI in [7], in assay [8], in assay [9] and in assay [10] was more than 100 µM each time.

Consider `O=C(Nc1cc(Oc2cc(F)c(NC(=O)C3(C(=O)Nc4ccc(F)cc4)CC3)cc2F)ccn1)C1CC1`, for which the GI50 was 3.98 µM in [1]; 2.87 µM in [2]; 3.07 µM in [3]; 1.4 µM in assay [4]; 0.59 µM in assay [5]; 2.2 µM in assay [6]. Moreover, the GI50 in assay [7] was 0.936 µM; in [8] it was 2.43 µM; in [9], 2.18 µM; in assay [10], 1.7 µM. The TGI in assay [1] is more than 50.1 µM; in [2] it was more than 100 µM; in assay [3], 7.09 µM; in assay [4], 3.27 µM; in assay [5], 5.86 µM; in assay [6], 6.25 µM. For the same compound, the TGI in assay [7] was 9.55 µM; in assay [8], more than 100 µM; in [9] it was 5.84 µM; in assay [10] it was 5.38 µM.

In the case of `CC(=O)OC1CC[C@@]2(C)C(CC[C@]3(C)C2CC=C2[C@@H]4C(C)[C@H](C)CCC4(C)CCC23C)[C@@]1(C)C(=O)O` (stereo not given in full), the TGI was 52.9 µM in assay [1]; 36.8 µM in [2]; 49.8 µM in assay [3]; 45 µM in assay [4]; 49.9 µM in [5]; 51.7 µM in assay [6]. For the same compound, the TGI in [7] was 25.8 µM; in assay [8], 49.6 µM; in [9], 45.4 µM; in [10] it was 70.6 µM.

Turning to `COc1cccc2c1C(=O)OC2c1cccc2ccccc12` (stereo not given), the TGI in [1], in [2], in assay [3], in [4], in assay [5] and in [6] was more than 100 µM each time. Further, the TGI in assay [7], in [8], in [9] and in assay [10] was more than 100 µM throughout.

In the case of `CCOC(=O)/C=C/C(=O)[C@H](CC(C)C)NC(=O)[C@H](Cc1ccccc1)NC(=O)OCc1ccccc1`, the GI50 in assay [1] was 1.84 µM; in assay [2] it was 2.36 µM; in assay [3], 14.4 µM; in [4], 2.46 µM; in assay [5] it was 2.56 µM; in [6], 1.76 µM. Also, the GI50 in assay [7] is 1.73 µM; in assay [8], 2.92 µM; in [9], 2.1 µM; in assay [10], 2.39 µM. Further, the TGI in [1] was 3.4 µM; in assay [2], 5.72 µM; in assay [3] it was 27.6 µM; in assay [4], 5.83 µM; in [5], 6.99 µM; in [6] it was 3.39 µM. Moreover, the TGI is 4.8 µM in [7], 6.35 µM in assay [8], 4.37 µM in assay [9] and 6.32 µM in assay [10].

For the compound `c1ccc([As]=[As]c2ccccc2)cc1` (stereo not given), the GI50 in assay [1] is 1.28 µM; in [2], 1.28 µM; in assay [3] it was 1.23 µM; in assay [4], 1.13 µM; in assay [5] it was 1.22 µM; in [6], 0.117 µM. The GI50 in [7] is 0.251 µM; in [8], 0.88 µM; in assay [9] it was 1.09 µM; in assay [10], 0.302 µM. The TGI in assay [1] stood at 3.19 µM; in assay [2] it was 2.65 µM; in [3] it was 2.87 µM; in assay [4], 2.8 µM; in assay [5], 3.08 µM; in [6], 0.653 µM. The TGI was 1.07 µM in assay [7], 2.21 µM in assay [8], 2.42 µM in assay [9] and 1.95 µM in assay [10].

In the case of `CCS(=O)(=O)c1ccc(OC)c(Nc2ncc(-c3ccccc3Cl)o2)c1`, the GI50 in assay [1] is more than 17.4 µM; in assay [2], more than 19.1 µM; in assay [3] it was 11.8 µM; in assay [4] it was 6.67 µM; in assay [5], 3.29 µM; in assay [6], 9.15 µM. Further, the GI50 in [7] is 8.27 µM; in [8] it was 11.4 µM; in assay [9], 8.95 µM; in assay [10] it was 15.5 µM. The TGI was more than 25 µM in assay [1]; more than 25 µM in assay [2]; more than 25 µM in assay [3]; 15.4 µM in assay [4]; 21.1 µM in [5]; more than 25 µM in assay [6]. Moreover, the TGI in assay [7], in [8], in assay [9] and in [10] was more than 25 µM each time.

For the compound `Cn1c(=S)c2[nH]c(SCCN3C(=O)c4ccccc4C3=O)nc2n(C)c1=O`, the TGI in assay [1], in assay [2], in [3], in [4], in assay [5] and in assay [6] was more than 100 µM throughout. The TGI in assay [7], in assay [8], in assay [9] and in assay [10] was more than 100 µM throughout.

For the compound `CN1CCN(Cc2ccc3c(NNC(=O)c4ccccc4)nc4cc(F)ccc4n23)CC1`, the GI50 in [1] was 0.376 µM; in [2], 0.0848 µM; in [3] it was 0.87 µM; in assay [4] it was 0.325 µM; in assay [5], 1.12 µM; in assay [6], 0.277 µM. Further, the GI50 in assay [7] is 0.359 µM; in assay [8], 0.5 µM; in assay [9], 0.55 µM; in [10] it was 0.282 µM. Further, the TGI in [1] worked out at 17.8 µM; in assay [2], 11.6 µM; in assay [3], 57.9 µM; in assay [4], 13.6 µM; in assay [5] it was 41.5 µM; in [6] it was 12.6 µM. The TGI in [7] was 11.8 µM; in assay [8], 19.2 µM; in assay [9], 12.9 µM; in [10] it was 15.7 µM.

In the case of `O=c1oc2ccc(-c3ccc(F)cc3F)cc2c(=O)n1-c1ccc(Cl)c(C(F)(F)F)c1`, the GI50 is 2.34 µM in [1]; 3.12 µM in assay [2]; 2.06 µM in assay [3]; 2.89 µM in assay [4]; 1.58 µM in assay [5]; 2.18 µM in assay [6]. The GI50 was 2.45 µM in assay [7], 2.25 µM in assay [8], 2.09 µM in assay [9] and 2.43 µM in assay [10]. The TGI in [1] was found to be 5.68 µM; in assay [2], 9.8 µM; in [3], 5.17 µM; in assay [4] it was 8.54 µM; in assay [5], 5.39 µM; in assay [6] it was 4.91 µM. Further, the TGI in [7] is more than 100 µM; in assay [8] it was 6.93 µM; in [9] it was 8.97 µM; in assay [10] it was 8.8 µM.

With `Cc1ccc(-c2nc(-c3cn(C)c4ncccc34)cs2)cc1`, the GI50 is 6.09 µM in [1]; 7.65 µM in [2]; 8 µM in assay [3]; 2.82 µM in assay [4]; 4.73 µM in assay [5]; 5.06 µM in assay [6]. Further, the GI50 in assay [7] was 2.39 µM; in [8], 4.88 µM; in [9], 2.14 µM; in assay [10], 0.442 µM. Also, the TGI in assay [1] was 19.8 µM; in [2], 29.2 µM; in [3] it was 32.4 µM; in assay [4], 10.5 µM; in assay [5], 23.8 µM; in assay [6], 18.1 µM. Further, the TGI in [7] was 15.9 µM; in assay [8] it was 21.5 µM; in assay [9], 16.7 µM; in [10] it was 21.8 µM.

Turning to `O=c1cc(-c2ccccc2)oc2cc(OC/C(=N/O)c3ccc(F)cc3)ccc12`, the GI50 was 39.6 µM in [1]; 19.2 µM in assay [2]; 15.1 µM in [3]; 26.1 µM in assay [4]; 28.6 µM in assay [5]; 20.8 µM in assay [6]. The GI50 was 11.9 µM in assay [7], 16.3 µM in [8], 14.9 µM in [9] and 23 µM in assay [10]. The TGI was more than 50 µM in [1]; more than 50 µM in assay [2]; 36.9 µM in assay [3]; more than 50 µM in [4]; more than 50 µM in [5]; more than 50 µM in [6]. The TGI in [7] is 31 µM; in assay [8], more than 50 µM; in assay [9], more than 50 µM; in assay [10] it was more than 50 µM.

Consider `CN1CCN(CCOc2cc(OC3CCOCC3)c3c(Nc4c(Cl)ccc5c4OCO5)ncnc3c2)CC1`, for which the GI50 in [1] was 4.47 µM and > 10 µM; in assay [2], 0.348 µM and 0.395 µM; in assay [3], 15.6 µM and > 10 µM; in assay [4] it was 9.81 µM and 7.76 µM; in assay [5] it was 0.679 µM and 0.139 µM; in assay [6] it was 1.45 µM and 0.971 µM. The GI50 in assay [7] was 4.72 µM and > 10 µM; in assay [8], 6.95 µM and 8.97 µM; in assay [9], 0.165 µM and 0.346 µM; in [10] it was 9.63 µM and 5.98 µM. In addition, the TGI in [1] is 24.1 µM and > 10 µM; in [2] it was 14 µM and > 10 µM; in assay [3], 30.7 µM and > 10 µM; in assay [4], 24 µM and > 10 µM; in [5] it was 11.4 µM and 5.64 µM; in assay [6], 16.2 µM and > 10 µM. Besides, the TGI was 27.4 µM and > 10 µM in [7]; 24.1 µM and > 10 µM in assay [8]; 2.5 µM and > 10 µM in assay [9]; 37.4 µM and > 10 µM in assay [10].

Take `NNC(=O)c1ccc(OCc2nc3ccccc3[nH]2)cc1`: the TGI in assay [1], in assay [2], in assay [3], in assay [4], in [5] and in [6] was more than 100 µM each time. The TGI in assay [7], in [8], in [9] and in assay [10] was more than 100 µM each time.

As to `Cc1cnc(Nc2ccc(N3CCN(C)CC3)cc2)nc1Nc1ccc(Cl)c(NS(=O)(=O)C(C)(C)C)c1`, the GI50 in assay [1] was 0.208 µM; in assay [2], 0.0902 µM; in [3] it was 0.872 µM; in assay [4] it was 0.094 µM; in [5] it was 0.17 µM; in assay [6], 0.169 µM. Moreover, the GI50 in assay [7] is 0.0795 µM; in assay [8], 0.159 µM; in assay [9] it was 0.073 µM; in assay [10] it was 0.092 µM. The TGI in assay [1] stood at 1.82 µM; in assay [2], 2.2 µM; in assay [3], 2.59 µM; in assay [4], 0.543 µM; in assay [5] it was 1.59 µM; in [6], 0.866 µM. The TGI in assay [7] worked out at 2.49 µM; in assay [8], 2.23 µM; in assay [9] it was 1.6 µM; in assay [10] it was 6.26 µM.

For the compound `CN(C)c1ccc(C(c2ccc(Cl)cc2)c2ccc(N(C)C)cc2)cc1`, the TGI in [1], in [2], in assay [3], in assay [4], in [5] and in assay [6] was more than 100 µM throughout. Moreover, the TGI in [7], in assay [8], in assay [9] and in assay [10] was more than 100 µM in each case.

With `CCOC(=O)c1ccc2c(c1)[n+](=O)c(C(C)=O)c(C(F)(F)F)n2[O-]`, the GI50 in [1] is 1.67 µM; in [2] it was 1.59 µM; in assay [3], 1.54 µM; in assay [4], 1.54 µM; in assay [5], 1.4 µM; in assay [6], 1.47 µM. Besides, the GI50 in [7] is 1.24 µM; in assay [8], 1.75 µM; in [9], 1.8 µM; in assay [10] it was 0.197 µM. Moreover, the TGI in assay [1] amounted to 3.21 µM; in assay [2], 3.01 µM; in assay [3], 3.21 µM; in assay [4] it was 3 µM; in [5], 2.86 µM; in [6] it was 3.12 µM. Further, the TGI in assay [7] came out at 2.61 µM; in assay [8] it was 3.62 µM; in assay [9], 3.84 µM; in [10], 0.625 µM.

Source of the values: PubChem BioAssay (NCI).
